We go through 34 molecules from patent US8436189B2, “Heterocyclic alkanol derivatives” (Bayer Intellectual Property GmbH, priority 2010, dated 2013).

Broadly, the chromatographic logP is lipophilicity estimated from chromatographic retention. Low readings indicate lower lipophilicity, high ones higher lipophilicity.

The subject of one series is Leptosphaeria nodorum. The experiment in a line: Leptosphaeria nodorum test (wheat)/protective. In kind it is in vivo. The following applies: protective spray, application rate 500 ppm, evaluation 8 days after inoculation, 0% = control, 100% = no infection. The procedure: (§1) Solvent: 49 parts by weight of N,N-dimethylacetamide
(§2) Emulsifier: 1 part by weight of alkylaryl polyglycol ether
(§3) To produce an appropriate active ingredient formulation, 1 part by weight of active ingredient is mixed with the specified amounts of solvent and emulsifier, and the concentrate is diluted with water to the desired concentration. To test for protective activity, young plants are sprayed with the formulation of active ingredient at the stated application rate. After the spray coating has dried on, the plants are sprayed with spores with a spore suspension of Leptosphaeria nodorum. The plants remain in an incubation cabin at 20° C. and 100% relative air humidity for 48 hours. The plants are placed in a greenhouse at a temperature of about 22° C. and a relative air humidity of about 80%. Evaluation follows 8 days after the inoculation. 0% means an efficacy which corresponds to that of the control, whereas an efficacy of 100% means that no infection is observed. In this test, the following inventive compounds, at an active ingredient concentration of 500 ppm, show an efficacy of 70% or more.

The next series deals with Puccinia triticina. In words: Puccinia triticina test (wheat)/protective. The following applies: protective spray, application rate 500 ppm, evaluation 8 days after inoculation, 0% = control, 100% = no infection. The class given is in vivo. The procedure:
as §1, §2
as §3, with “Puccinia triticina.” for “Leptosphaeria nodorum.”, “20°” for “22°”

For series [1], the system named is Blumeria graminis f sp. hordei. In words: Blumeria graminis test (barley)/protective. In kind it is in vivo. To be noted: protective spray, application rate 500 ppm, evaluation 7 days after inoculation, 0% = control, 100% = no infection. The procedure:
Solvent: 49 parts by weight of N,N-dimethylacetamide Emulsifier: 1 part by weight of alkylaryl polyglycol ether To produce an appropriate active ingredient formulation, 1 part by weight of active ingredient is mixed with the specified amounts of solvent and emulsifier, and the concentrate is diluted with water to the desired concentration. To test for protective activity, young plants are sprayed with the formulation of active ingredient at the stated application rate. After the spray coating has dried on, the plants are dusted with spores of Blumeria graminis f sp. hordei. The plants are placed in a greenhouse at a temperature of about 18° C. and a relative air humidity of about 80% to promote the development of mildew pustules. Evaluation follows 7 days after the inoculation. 0% means an efficacy which corresponds to that of the control, whereas an efficacy of 100% means that no infection is observed. In this test, the following inventive compounds, at an active ingredient concentration of 500 ppm, show an efficacy of 70% or more.

The nature of series [2]: log P by HPLC on reversed-phase columns (C18), EEC Directive 79/831 Annex V.A8. The following applies: method [a]: LC-MS, acidic range, pH 2.7, 0.1% aqueous formic acid / acetonitrile, gradient 10% to 95% acetonitrile. The class given is physicochemical. The procedure:
The log P values were measured in accordance with EEC Directive 79/831 Annex V.A8 by HPLC (High Performance Liquid Chromatography) using reversed-phase columns (C18) by the following methods: [a] The LC-MS determination in the acidic range is effected at pH 2.7 with 0.1% aqueous formic acid and acetonitrile (contains 0.1% formic acid) as eluents; linear gradient from 10% acetonitrile to 95% acetonitrile.

Another series has as its system Uromyces appendiculatus. In words: Uromyces test (bean)/protective. The class given is in vivo. The following applies: protective spray, application rate 100 ppm, evaluation 10 days after inoculation, 0% = control, 100% = no infection. The procedure: (§4) Solvent: 24.5 parts by weight of acetone • 24.5 parts by weight of dimethylacetamide Emulsifier: 1 part by weight of alkylaryl polyglycol ether To produce an appropriate active ingredient formulation, 1 part by weight of active ingredient is mixed with the specified amounts of solvent and emulsifier, and the concentrate is diluted with water to the desired concentration. To test for protective activity, young plants are sprayed with the active ingredient formulation at the stated application rate. After the spray coating has dried on, the plants are inoculated with an aqueous spore suspension of the bean rust pathogen Uromyces appendiculatus and then remain in an incubation cabin at about 20° C. and 100% relative air humidity for 1 day. The plants are then placed in the greenhouse at about 21° C. and a relative air humidity of about 90%. Evaluation follows 10 days after the inoculation. 0% means an efficacy which corresponds to that of the control, whereas an efficacy of 100% means that no infection is observed. In this test, the following inventive compounds, at an active ingredient concentration of 100 ppm, show an efficacy of 70% or more.

In another series the test system is Venturia inaequalis. The experiment in a line: Venturia test (apple)/protective. The class given is in vivo. The following applies: protective spray, application rate 100 ppm, evaluation 10 days after inoculation, 0% = control, 100% = no infection. The procedure: as §4, with “aqueous conidia” for “aqueous spore”, “the apple scab” for “the bean rust”, “pathogen Venturia inaequalis” for “pathogen Uromyces appendiculatus”, “in a” for “in the”

As to `CC(C)(C)C(O)(COc1ccc(Br)cc1Cl)c1cncs1` (stereo not drawn) [Compound No. 2], the “Efficacy (%)” value in the series on Leptosphaeria nodorum came to 92%; with Puccinia triticina, 95%; in series [1], 100%.

On to `CC(C)(C)C(O)(COc1ccc(Br)cc1F)c1cncs1` (stereo not drawn) [Compound No. 3], for which the “Efficacy (%)” value (in the series with Leptosphaeria nodorum; with Puccinia triticina; in series [1]) was 100% each time.

The molecule `CC(C)(C)C(O)(Cc1ccc(F)cc1F)c1cncs1` (stereo not drawn) [Compound No. 31] had a chromatographic logP in series [2] (reversed-phase HPLC column (C18)) of 3.04.

Turning to `CC(C)(C)C(O)(COc1ccc(I)cc1F)c1cncs1` (stereo not drawn) [compound 1], the “Efficacy (%)” value with Leptosphaeria nodorum is 100%; in the series with Uromyces appendiculatus, 100%; with Venturia inaequalis, 97%; in the series with Puccinia triticina, 100%; in series [1] it was 100%.

`CC(C)(C)C(O)(COc1ccc(I)cc1Cl)c1cncs1` (stereo not drawn) [compound 5]: in series [2], the logP result is “logP 4.14^[a]; [M + H]^+ = 438”.

Take `CC1(C(O)(COc2cc(Br)cc(Br)c2)c2cncs2)CC1` (stereo not drawn) [compound 7]: the logP entry in series [2] is “logP 4.03^[a]; [M + H]^+ = 434”.

In the case of `Cc1cc(I)ccc1OCC(O)(c1cncs1)C1(C)CC1` (stereo not drawn) [compound 10], the logP result in series [2] was “logP 3.88^[a]; [M + H]^+ = 416”.

Consider `CC1(C(O)(COc2ccc(Br)c(F)c2)c2cncs2)CC1` (stereo not drawn) [compound 12], for which, in series [2], the logP entry is “logP 3.30^[a]; [M + H]^+ = 372, 374”.

On to `CC1(C(O)(COc2ccc(Br)c(C(F)(F)F)c2)c2cncs2)CC1` (stereo not drawn) [compound 13], for which the logP entry in series [2] was “logP 3.70^[a]; [M + H]^+ = 422, 424”.

For `COc1cc(OC(F)(F)F)ccc1OCC(O)(c1cncs1)C(C)(C)C` (stereo not drawn) [compound 14], the logP entry in series [2] was “logP 3.70^[a]; [M + H]^+ = 392”.

On to `CC1(C(O)(COc2ccc(I)c([N+](=O)[O-])c2)c2cncs2)CC1` (stereo not drawn) [compound 15], for which the logP result in series [2] was “logP 3.11^[a]; [M + H]^+ = 447”.

`CC(C)(C)C(O)(COc1ccc(SC(F)(F)F)c(F)c1)c1cncs1` (stereo not drawn) [compound 16]: the logP entry in series [2] was “logP 3.96^[a]; [M + H]^+ = 396”.

For `Cc1cc(OCC(O)(c2cncs2)C(C)(C)C)ccc1S(C)(=O)=O` (stereo not drawn) [compound 17], the logP result in series [2] is “logP 2.21^[a]; [M + H]^+ = 370”.

`Cc1cc(OCC(O)(c2cncs2)C(C)(C)C)ccc1[S+](C)[O-]` (stereo not drawn) [compound 18]: in series [2], the logP result is “logP 1.90^[a]; [M + H]^+ = 354”.

Take `Cc1cc(S(=O)(=O)C(F)(F)F)ccc1OCC(O)(c1cncs1)C(C)(C)C` (stereo not drawn) [compound 19]: in series [2], the logP result was “logP 3.63^[a]; [M + H]^+ = 424”.

For the molecule `COc1cc(S(=O)(=O)C(F)(F)F)ccc1OCC(O)(c1cncs1)C(C)(C)C` (stereo not drawn) [compound 20], the logP entry in series [2] was “logP 3.37^[a]; [M + H]^+ = 440”.

In the case of `CC(C)(C)C(O)(COc1ccc(SC(F)(F)F)c(Cl)c1)c1cncs1` (stereo not drawn) [compound 21], the logP result in series [2] is “logP 4.31^[a]; [M + H]^+ = 412”.

`Cc1cc(OCC(O)(c2cncs2)C(C)(C)C)ccc1SC(F)(F)F` (stereo not drawn) [compound 22]: the logP result in series [2] is “logP 4.35^[a]; [M + H]^+ = 392”.

Consider `Cc1cc(SC(F)(F)F)ccc1OCC(O)(c1cncs1)C(C)(C)C` (stereo not drawn) [compound 23], for which the logP result in series [2] was “logP 4.43^[a]; [M + H]^+ = 392”.

Consider `CC(C)(C)C(O)(COc1ccc(OC(F)(F)F)c(Cl)c1)c1cncs1` (stereo not drawn) [compound 24], for which, in series [2], the logP result was “logP 4.02^[a]; [M + H]^+ = 396”.

As for `Cc1cc(Cl)ccc1OCC(O)(c1cncs1)C(C)(C)C` (stereo not drawn) [compound 25], the logP entry in series [2] is “logP 3.77^[a]; [M + H]^+ = 326”.

Turning to `CC(C)(C)C(O)(COc1ccc(Cl)cc1F)c1cncs1` (stereo not drawn) [compound 26], the logP result in series [2] was “logP 3.37^[a]; [M + H]^+ = 330”.

Regarding `Cc1cc(OCC(O)(c2cncs2)C(C)(C)C)ccc1Cl` (stereo not drawn) [compound 27], the logP result in series [2] was “logP 3.74^[a]; [M + H]^+ = 326”.

For the molecule `CSc1ccc(OCC(O)(c2cncs2)C(C)(C)C)cc1C` (stereo not drawn) [compound 28], in series [2], the logP result was “logP 3.63^[a]; [M + H]^+ = 338”.

`CC(C)(C)C(O)(COc1ccc(OC(F)(F)F)cc1Cl)c1cncs1` (stereo not drawn) [compound 29]: the logP entry in series [2] is “logP 4.10^[a]; [M + H]^+ = 396”.

On to `CC1(C(O)(COc2ccc(Br)cc2F)c2cncs2)CC1` (stereo not drawn) [compound 32], for which the logP entry in series [2] was “logP 3.32^[a]; [M + H]+ = 372, 374”.

As for `CC(C)(C)C(O)(COc1ccc(Cl)cc1Cl)c1cncs1` (stereo not drawn) [compound 33], the logP result in series [2] is “logP 3.84^[a]”.

As to `CC(C)(C)C(O)(COc1ccc(F)cc1F)c1cncs1` (stereo not drawn) [compound 34], the logP entry in series [2] was “logP 2.98^[a]”.

As for `COc1cc(Br)ccc1OCC(O)(c1cncs1)C1(C)CC1` (stereo not drawn) [compound 35], in series [2], the logP result was “logP 3.26^[a]”.

Take `COc1cc(OCC(O)(c2cncs2)C2(C)CC2)ccc1Br` (stereo not drawn) [compound 36]: the logP result in series [2] was “logP 3.16^[a]”.

As for `CC(C)(C)C(O)(COc1ccc(Cl)cc1C(F)(F)F)c1cncs1` (stereo not drawn) [compound 37], the logP result in series [2] is “logP 3.96^[a]”.

On to `CC(C)(C)C(O)(COc1ccc(Cl)c(Cl)c1)c1cncs1` (stereo not drawn) [compound 39], for which the logP entry in series [2] is “logP 3.72^[a]”.

Turning to `CC(C)(C)C(O)(COc1ccc(OC(F)(F)F)c(Br)c1)c1cncs1` (stereo not drawn) [compound 41], the logP result in series [2] is “logP 4.12^[a]”.

In the case of `Cc1cc(OC(F)(F)F)ccc1OCC(O)(c1cncs1)C(C)(C)C` (stereo not drawn) [compound 42], the logP entry in series [2] was “logP 4.12^[a]”.
